From article PMC11790914, “Chemogenomics for steroid hormone receptors (NR3)” (Communications Chemistry, 2025)
Values joined by “and” are separate entries in the source; they are usually repeats but may differ in a detail not shown here. Equal values may be shown once. Read-outs that look alike come from different tables or passages of the source.

Legend:
[1] = molecular target: T1, MAPK1 (Homo sapiens, UniProt P28482); assay: Liability panel screening by DSF: MAPK1; assay type: binding; conditions: read-out: Mean ΔTM MAPK1
T1 construct: made in house
Summary of the method: (§1)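 Recombinant protein at 2 µM in 10 mM HEPES pH 7.5 with 500 mM NaCl was mixed with SYPRO Orange (1:1000) and heated at 3 °C/min up to 85 °C. Tm was taken as the Boltzmann-fit inflection point. Shifts are ∆Tm in K from technical duplicates.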

[2] = molecular target: T2, CSNK1D (Homo sapiens, UniProt P48730); assay: Liability panel screening by DSF: CSNK1D; assay type: binding; conditions: read-out: Mean ΔTM CSNK1D
T2 construct: made in house
Summary of the method: as §1

[3] = system: HEK293T cells; assay: Cytotoxicity: metabolic activity (WST-8 / CCK-8 assay); conditions: 1 µM; HEK293T, 24 h; WST-8; normalized to 0.1% DMSO; single replicates
[4] = system: NR3C4 (AR); conditions: cited from earlier work
[5] = system: HEK293T cells; assay: Cytotoxicity: apoptosis induction (caspase-3/7 DEVD fluorogenic DNA dye); conditions: 1 µM; HEK293T, 24 h; apoptotic cell count normalized to 0.1% DMSO; single replicates
[6] = system: HEK293T cells; assay: Cytotoxicity: growth-rate (change in confluence over 24 h); conditions: 1 µM, normalized to 0.1% DMSO control, single replicates (n=1...)
[7] = molecular target: T3, FGFR3 (Homo sapiens, UniProt P22607); assay: Liability panel screening by DSF: FGFR3; assay type: binding; conditions: read-out: Mean ΔTM FGFR3
T3 construct: made in house
Summary of the method: as §1

[8] = molecular target: T4, TRIM24 (Homo sapiens, UniProt O15164); assay: Liability panel screening by DSF: TRIM24; assay type: binding; conditions: read-out: Mean ΔTM TRIM24
T4 construct: This panel comprised ten highly ligandable kinases and bromodomains; made in house
T4 sequence (O15164 899-1004 limits assumed): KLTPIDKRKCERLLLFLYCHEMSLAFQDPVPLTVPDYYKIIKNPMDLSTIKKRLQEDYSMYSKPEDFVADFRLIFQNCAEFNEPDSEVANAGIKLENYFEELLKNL
Summary of the method: as §1

[9] = system: Gal4-VP16; assay type: cell-based; conditions: 1 µM; vs. DMSO ctrl; single replicates n=1-3
[10] = molecular target: T5, ABL1 (Homo sapiens, UniProt P00519); assay: Liability panel screening by DSF: ABL1; assay type: binding; conditions: read-out: Mean ΔTM ABL1
T5 construct: made in house
Summary of the method: as §1

[11] = system: ATF6 activity in Hela ATF6 reporter cells; assay: Endoplasmic reticulum stress assay (ATF6 Renilla luciferase reporter, tunicamycin); assay type: cell-based; conditions: Homo sapiens, HeLa, 1 µM, single replicates n=1 to n=5; read-out: ER stress [rel. ATF6 activity]
Summary of the method: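 HeLa ATF6 Renilla reporter cells were pretreated 4 h with compounds in 0.1% DMSO, then stimulated with tunicamycin (100 ng/mL) for 18 h. Renilla luminescence (DualGlo) was normalized to 0.1% DMSO control; five independent experiments.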

[12] = molecular target: T6, CDK2 (Homo sapiens, UniProt P24941); assay: Liability panel screening by DSF: CDK2; assay type: binding; conditions: read-out: Mean ΔTM CDK2
T6 construct: made in house
Summary of the method: as §1

[13] = system: HEK293T cells; assay: Cytotoxicity: necrosis induction (red fluorescent dye for permeable plasma membranes); assay type: cell-based; conditions: 1 µM, 24 h, necrotic cell count normalized to 0.1% DMSO, single replicates;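 further: compounds applied in DMEM high glucose with 0.1% FCS and 0.1% DMSO, necrotic HEK293T cells counted by red staining of cells whose plasma membranes had become permeable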
Protocol: Cells were incubated with the test compounds at the indicated concentrations solubilized with 0.1% DMSO for 24 h. […] Necrotic cells were detected with a red fluorescent dye that labels cells with permeable plasma membranes after 24 h treatment and the necrotic cell count was normalized to 0.1% DMSO treated cells (n = 4). e NR family selectivity profiling of NR3 CG compound candidates in uniform Gal4-hybrid reporter gene assays for selected NR representing the NR1, NR2, NR4 and NR5 families.
HEK293T cells (German Collection of Microorganisms and Cell Culture GmbH, DSMZ; #ACC305) were cultured in DMEM high glucose, supplemented with 10% fetal calf serum (FCS), sodium pyruvate (1 mM), penicillin (100 µ/mL) and streptomycin (100 µg/mL) at 37 °C and 5% (v/v) CO2, and seeded in pre-coated (10 µg/mL collagen G solution (Merck KgaA; #L7213) for 30 min at 37 °C) 96-well plates (2 × 10^5 cells per well). After 24 h, the cells were treated with the respective NR3 CG compound candidate at the recommended concentration, bexarotene (100 µM) or doxorubicin (30 µM) as positive controls in DMEM high glucose supplemented with 0.1% FCS, penicillin (100 µ/mL), streptomycin (100 µg/mL) and 0.1% DMSO, or 0.1% DMSO alone as an untreated control. Each sample was prepared in at least four biologically independent replicates. […] Before drug administration, after the first medium exchange, 24 h after drug administration, and after fluorescence imaging cell confluence was assessed using the Tecan Spark Cyto, to account for changes in cell confluence due to drug administration and cell handling. Compound effects on cell confluence, apoptosis, metabolic activity and necrosis were normalized to the vehicle control of each biological replicate individually.

[14] = molecular target: T7, BRPF1 (Homo sapiens, UniProt P55201); assay: Liability panel screening by DSF: BRPF1; assay type: binding; conditions: read-out: Mean ΔTM BRPF1
T7 construct: This panel comprised ten highly ligandable kinases and bromodomains; made in house
T7 sequence (P55201 628-732 limits assumed): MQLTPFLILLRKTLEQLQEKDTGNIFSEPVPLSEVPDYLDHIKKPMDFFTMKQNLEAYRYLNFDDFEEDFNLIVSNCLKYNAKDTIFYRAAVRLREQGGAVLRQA
Summary of the method: as §1

[15] = molecular target: T8, GSK3B (Homo sapiens, UniProt P49841); assay: Liability panel screening by DSF: GSK3B; assay type: binding; conditions: read-out: Mean ΔTM GSK3B
T8 construct: made in house

[16] = molecular target: T9, AURKA (Homo sapiens, UniProt O14965); assay: Liability panel screening by DSF: AURKA; assay type: binding; conditions: read-out: Mean ΔTM AURKA
T9 construct: made in house
T9 sequence (O14965 1-403): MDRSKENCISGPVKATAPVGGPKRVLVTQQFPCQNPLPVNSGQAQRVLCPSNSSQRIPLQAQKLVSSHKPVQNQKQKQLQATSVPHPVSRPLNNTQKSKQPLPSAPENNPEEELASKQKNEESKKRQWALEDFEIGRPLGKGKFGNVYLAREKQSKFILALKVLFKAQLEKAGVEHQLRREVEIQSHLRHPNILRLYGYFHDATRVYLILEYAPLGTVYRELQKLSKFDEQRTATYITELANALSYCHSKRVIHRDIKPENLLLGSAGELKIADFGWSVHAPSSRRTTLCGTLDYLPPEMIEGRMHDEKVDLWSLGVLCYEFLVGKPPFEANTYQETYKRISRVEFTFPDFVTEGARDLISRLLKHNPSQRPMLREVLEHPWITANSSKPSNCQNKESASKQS
Summary of the method: as §1

[17] = system: NF-κB activity in HEK293 NF-κB reporter cells; assay: NF-kB activity assay (GFP reporter, ionomycin/PMA); assay type: cell-based; conditions: for Mean NFκB response: n=3; for NF-κB activity (inflammatory response to ionomycin/PMA): HEK293 NF-κB reporter cells, compounds at recommended concentrations, imaged over 24 h, n = 3
Summary of the method: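 HEK293 NF-κB GFP reporter cells given compound in 0.1% DMSO for 4 h, then stimulated with ionomycin 100 ng/mL plus PMA 10 ng/mL. Imaged every 90 min over 24 h; GFP-positive cell count normalized to confluence, three independent biological replicates.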

[18] = molecular target: T10, BRD4 (Homo sapiens, UniProt O60885); assay: Liability panel screening by DSF: BRD4; assay type: binding; conditions: read-out: Mean ΔTM BRD4
T10 construct: This panel comprised ten highly ligandable kinases and bromodomains; made in house
Summary of the method: as §1

T2 sequence (P48730 whole entry, species assumed): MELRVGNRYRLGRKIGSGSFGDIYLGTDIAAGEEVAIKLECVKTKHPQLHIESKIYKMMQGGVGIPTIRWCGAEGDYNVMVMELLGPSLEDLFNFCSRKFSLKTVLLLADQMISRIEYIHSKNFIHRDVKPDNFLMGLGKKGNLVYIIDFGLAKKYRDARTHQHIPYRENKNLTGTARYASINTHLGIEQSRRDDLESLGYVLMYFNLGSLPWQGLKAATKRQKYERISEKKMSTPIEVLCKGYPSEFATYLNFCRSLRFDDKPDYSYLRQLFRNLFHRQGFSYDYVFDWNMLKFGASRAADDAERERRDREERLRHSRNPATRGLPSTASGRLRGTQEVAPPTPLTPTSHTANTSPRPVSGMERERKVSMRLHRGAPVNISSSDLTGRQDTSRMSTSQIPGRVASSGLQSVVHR
T8 sequence (P49841 whole entry, species assumed): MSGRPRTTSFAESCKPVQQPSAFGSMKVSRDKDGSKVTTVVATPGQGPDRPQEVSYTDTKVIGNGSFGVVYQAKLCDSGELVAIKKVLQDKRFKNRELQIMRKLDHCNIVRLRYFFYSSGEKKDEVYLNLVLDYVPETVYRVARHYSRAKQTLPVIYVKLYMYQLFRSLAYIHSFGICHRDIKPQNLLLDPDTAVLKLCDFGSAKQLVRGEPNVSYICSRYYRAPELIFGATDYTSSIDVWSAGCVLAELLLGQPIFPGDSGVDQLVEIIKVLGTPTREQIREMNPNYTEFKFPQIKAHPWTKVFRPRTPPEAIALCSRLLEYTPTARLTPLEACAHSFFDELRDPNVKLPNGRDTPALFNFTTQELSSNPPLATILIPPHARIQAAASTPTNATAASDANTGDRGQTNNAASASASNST
T5 sequence (P00519 whole entry, species assumed): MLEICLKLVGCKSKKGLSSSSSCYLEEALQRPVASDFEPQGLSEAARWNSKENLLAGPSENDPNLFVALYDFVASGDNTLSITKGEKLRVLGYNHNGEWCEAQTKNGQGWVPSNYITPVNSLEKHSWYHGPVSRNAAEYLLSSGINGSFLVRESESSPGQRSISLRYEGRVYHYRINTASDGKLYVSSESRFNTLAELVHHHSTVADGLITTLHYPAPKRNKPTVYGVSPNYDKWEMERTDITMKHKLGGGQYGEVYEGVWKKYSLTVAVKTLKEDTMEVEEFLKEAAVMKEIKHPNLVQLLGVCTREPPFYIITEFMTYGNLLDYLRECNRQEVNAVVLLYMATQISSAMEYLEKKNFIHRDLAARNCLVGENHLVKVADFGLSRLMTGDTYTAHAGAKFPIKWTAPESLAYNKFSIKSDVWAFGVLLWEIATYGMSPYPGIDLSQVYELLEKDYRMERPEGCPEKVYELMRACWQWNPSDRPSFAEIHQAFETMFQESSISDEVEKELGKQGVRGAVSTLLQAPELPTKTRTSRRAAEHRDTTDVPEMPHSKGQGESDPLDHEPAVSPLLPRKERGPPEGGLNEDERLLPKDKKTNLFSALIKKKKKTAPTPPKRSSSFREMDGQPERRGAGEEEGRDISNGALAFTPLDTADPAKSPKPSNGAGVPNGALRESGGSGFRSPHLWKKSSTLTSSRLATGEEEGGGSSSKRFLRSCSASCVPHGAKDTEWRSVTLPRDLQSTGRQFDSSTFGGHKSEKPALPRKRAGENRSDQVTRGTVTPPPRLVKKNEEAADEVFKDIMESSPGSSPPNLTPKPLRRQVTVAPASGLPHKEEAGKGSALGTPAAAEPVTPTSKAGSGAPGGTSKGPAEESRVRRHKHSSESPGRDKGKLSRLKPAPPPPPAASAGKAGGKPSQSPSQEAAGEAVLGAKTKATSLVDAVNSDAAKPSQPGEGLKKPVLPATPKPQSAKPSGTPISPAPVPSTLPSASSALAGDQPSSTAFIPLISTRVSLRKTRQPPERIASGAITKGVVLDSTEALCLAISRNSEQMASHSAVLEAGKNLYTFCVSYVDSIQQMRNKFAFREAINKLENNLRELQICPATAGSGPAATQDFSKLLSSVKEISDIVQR
T3 sequence (P22607 23-806, species assumed): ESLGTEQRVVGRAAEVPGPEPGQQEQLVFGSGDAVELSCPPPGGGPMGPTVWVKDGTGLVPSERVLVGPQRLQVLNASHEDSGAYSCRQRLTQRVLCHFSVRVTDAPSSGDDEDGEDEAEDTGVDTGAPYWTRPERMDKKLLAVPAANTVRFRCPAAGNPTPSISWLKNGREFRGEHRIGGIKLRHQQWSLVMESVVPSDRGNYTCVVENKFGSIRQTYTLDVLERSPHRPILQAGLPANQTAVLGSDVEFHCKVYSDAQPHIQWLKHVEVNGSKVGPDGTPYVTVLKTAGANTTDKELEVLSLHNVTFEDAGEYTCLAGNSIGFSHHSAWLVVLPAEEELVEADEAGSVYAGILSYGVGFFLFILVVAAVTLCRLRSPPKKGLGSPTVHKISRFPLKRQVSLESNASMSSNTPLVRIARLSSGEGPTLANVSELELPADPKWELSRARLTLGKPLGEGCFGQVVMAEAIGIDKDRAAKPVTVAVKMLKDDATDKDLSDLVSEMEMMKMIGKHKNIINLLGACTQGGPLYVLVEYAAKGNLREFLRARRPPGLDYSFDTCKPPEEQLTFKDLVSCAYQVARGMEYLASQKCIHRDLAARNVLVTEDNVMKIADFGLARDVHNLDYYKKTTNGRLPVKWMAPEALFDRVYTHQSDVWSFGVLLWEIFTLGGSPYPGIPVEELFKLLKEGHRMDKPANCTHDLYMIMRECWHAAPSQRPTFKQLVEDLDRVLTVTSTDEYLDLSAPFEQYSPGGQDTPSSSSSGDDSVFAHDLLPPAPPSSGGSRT
T1 sequence (P28482 whole entry, species assumed): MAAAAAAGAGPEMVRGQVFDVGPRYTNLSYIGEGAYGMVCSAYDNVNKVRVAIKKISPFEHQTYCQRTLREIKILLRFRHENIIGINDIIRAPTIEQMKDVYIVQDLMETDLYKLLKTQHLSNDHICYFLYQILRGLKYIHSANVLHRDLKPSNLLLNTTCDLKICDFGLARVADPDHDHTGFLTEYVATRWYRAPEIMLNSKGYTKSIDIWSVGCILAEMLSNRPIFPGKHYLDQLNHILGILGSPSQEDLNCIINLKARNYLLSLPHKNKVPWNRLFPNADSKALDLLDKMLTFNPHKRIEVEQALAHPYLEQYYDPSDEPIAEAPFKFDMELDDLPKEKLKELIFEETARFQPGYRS

CC(=O)Nc1ccc(OC[C@](C)(O)C(=O)Nc2ccc([N+](=O)[O-])c(C(F)(F)F)c2)cc1 [Andarine]
ΔTm at 20 µM [1]: -0.26 °C | ΔTm at 20 µM [2]: 0.23 °C | Metabolic activity [MA] [3]: 0.98 and 1.03 and 0.99 and 1.08 and 1.06 (2×) and 1.01 and 1.09 | rel. activity from literature, NR3C4 (AR): % of DHT ([4]; of DHT (dihydrotestosterone), ref Supplementary Table 1): 93 ± 7% | EC50 ([4]; read-out: Potency [nM] EC50, NR3C4 (AR), (lit.), ref Supplementary Table 1): 4 ± 0.7 nM | Apoptosis induction [AI] [5]: 0.62 and 0.88 and 1.01 and 1.08 and 0.95 and 0.84 | Growth rate [GR] [6]: 0.83 (2×) and 2.46 and 0.88 and 1.35 and 0.73 and 0.55 and 1.46 and 1.51 and 2.55 | ΔTm at 20 µM [7]: 2.59 °C | ΔTm at 20 µM [8]: 0.0216 °C | VP16 control [fold reporter gene activity] [9]: 1.16 fold reporter gene activity and 1.15 fold reporter gene activity and 1.08 fold reporter gene activity | ΔTm at 20 µM [10]: 0.78 °C | activity at 1 µM [11]: 93% | ΔTm at 20 µM [12]: 0.35 °C | Necrosis induction [NI] [13]: 0.97 and 1.10 and 1.08 and 1.02 | ΔTm at 20 µM [14]: 0.97 °C | ΔTm at 20 µM [15]: 0.71 °C | ΔTm at 20 µM [16]: -0.0326 °C | Mean NFκB response ([17]; 1 µM, 1,5 h): 2599.83 GFP+-cells/confluence ∙ 1000 | Mean NFκB response ([17]; 1 µM, 4,5 h): 2912.69 GFP+-cells/confluence ∙ 1000 | Mean NFκB response ([17]; 1 µM, 7,5 h): 4207.99 GFP+-cells/confluence ∙ 1000 | Mean NFκB response ([17]; 1 µM, 10,5 h): 8408.10 GFP+-cells/confluence ∙ 1000 | Mean NFκB response ([17]; 1 µM, 13,5 h): 11806.03 GFP+-cells/confluence ∙ 1000 | Mean NFκB response ([17]; 1 µM, 16,6 h): 14271.49 GFP+-cells/confluence ∙ 1000 | Mean NFκB response ([17]; 1 µM, 19,5 h): 16631.36 GFP+-cells/confluence ∙ 1000 | Mean NFκB response ([17]; 1 µM, 22,5 h): 18398.57 GFP+-cells/confluence ∙ 1000 | Mean NFκB response ([17]; 1 µM, 3 h): 2627.11 GFP+-cells/confluence ∙ 1000 | Mean NFκB response ([17]; 1 µM, 6 h): 3252.11 GFP+-cells/confluence ∙ 1000 | Mean NFκB response ([17]; 1 µM, 9 h): 5899.76 GFP+-cells/confluence ∙ 1000 | Mean NFκB response ([17]; 1 µM, 12 h): 10166.51 GFP+-cells/confluence ∙ 1000 | Mean NFκB response ([17]; 1 µM, 15 h): 13144.54 GFP+-cells/confluence ∙ 1000 | Mean NFκB response ([17]; 1 µM, 18 h): 15566.10 GFP+-cells/confluence ∙ 1000 | Mean NFκB response ([17]; 1 µM, 21 h): 17508.52 GFP+-cells/confluence ∙ 1000 | Mean NFκB response ([17]; 1 µM, 24 h): 19523.33 GFP+-cells/confluence ∙ 1000 | NF-κB activity (inflammatory response to ionomycin/PMA) [17]: anti-inflammatory effect | ΔTm at 20 µM [18]: -0.77 °C

N#Cc1ccc([C@H]2CCCC[C@H]2O)cc1C(F)(F)F [PF-998425]
ΔTm at 20 µM ([1]; DSF, 20 µM, n=2): -0.24 °C | ΔTm at 20 µM ([2]; DSF, 20 µM, n=2): 0.3 °C | Metabolic activity [MA] [3]: 1.03 and 0.98 (3×) and 1.06 and 0.99 and 1.07 and 1.00 | IC50 ([4]; read-out: Potency [nM] IC50, NR3C4 (AR)): 43 ± 12 nM | Apoptosis induction [AI] [5]: 1.04 and 1.14 and 1.23 and 0.96 and 0.64 and 1.74 | Growth rate [GR] [6]: 0.92 and 1.38 and 1.07 and 1.15 and 0.96 and 0.86 and 0.80 and 0.57 and 1.49 and 3.80 | ΔTm at 20 µM ([7]; DSF, 20 µM, n=2): -0.09 °C | ΔTm at 20 µM ([8]; DSF, 20 µM, n=2): -1.04 °C | VP16 control [fold reporter gene activity] [9]: 1.26 fold reporter gene activity and 1.19 fold reporter gene activity and 1.03 fold reporter gene activity | ΔTm at 20 µM ([10]; DSF, 20 µM, n=2): 0.55 °C | activity at 1 µM [11]: 87% | ΔTm at 20 µM ([12]; DSF, 20 µM, n=2): 0.11 °C | Necrosis induction [NI] [13]: 0.87 and 1.08 and 0.88 and 1.00 | ΔTm at 20 µM ([14]; DSF, 20 µM, n=2): -0.66 °C | ΔTm at 20 µM ([15]; DSF, 20 µM, n=2): -0.43 °C | ΔTm at 20 µM ([16]; DSF, 20 µM, n=2): -1.09 °C | Mean NFκB response ([17]; 1 µM, 1,5 h): 2870.31 GFP+-cells/confluence ∙ 1000 | Mean NFκB response ([17]; 1 µM, 4,5 h): 3725.32 GFP+-cells/confluence ∙ 1000 | Mean NFκB response ([17]; 1 µM, 7,5 h): 8899.00 GFP+-cells/confluence ∙ 1000 | Mean NFκB response ([17]; 1 µM, 10,5 h): 17651.00 GFP+-cells/confluence ∙ 1000 | Mean NFκB response ([17]; 1 µM, 13,5 h): 24472.33 GFP+-cells/confluence ∙ 1000 | Mean NFκB response ([17]; 1 µM, 16,6 h): 29696.67 GFP+-cells/confluence ∙ 1000 | Mean NFκB response ([17]; 1 µM, 19,5 h): 33323.33 GFP+-cells/confluence ∙ 1000 | Mean NFκB response ([17]; 1 µM, 22,5 h): 35466.67 GFP+-cells/confluence ∙ 1000 | Mean NFκB response ([17]; 1 µM, 3 h): 3247.46 GFP+-cells/confluence ∙ 1000 | Mean NFκB response ([17]; 1 µM, 6 h): 5028.67 GFP+-cells/confluence ∙ 1000 | Mean NFκB response ([17]; 1 µM, 9 h): 13977.00 GFP+-cells/confluence ∙ 1000 | Mean NFκB response ([17]; 1 µM, 12 h): 20998.00 GFP+-cells/confluence ∙ 1000 | Mean NFκB response ([17]; 1 µM, 15 h): 27073.33 GFP+-cells/confluence ∙ 1000 | Mean NFκB response ([17]; 1 µM, 18 h): 31376.67 GFP+-cells/confluence ∙ 1000 | Mean NFκB response ([17]; 1 µM, 21 h): 34843.33 GFP+-cells/confluence ∙ 1000 | Mean NFκB response ([17]; 1 µM, 24 h): 36873.33 GFP+-cells/confluence ∙ 1000 | NF-κB activity (inflammatory response to ionomycin/PMA) [17]: tended to enhance NF-κB activity | ΔTm at 20 µM ([18]; DSF, 20 µM, n=2): -1.51 °C
